Results reported in patent US20040014047A1, “Antisense modulation of LIM domain kinase 1 expression” (Isis Pharmaceuticals Inc., priority 2002, published 2004).
Strand notation (5' to 3'): a small letter for the sugar, then the base; units joined by * are phosphorothioate-linked, units joined directly phosphodiester-linked; [ ] holds rarer units or linkages, { } end groups; capitals alone tell only the bases. e = 2'-O-(2-methoxyethyl) (MOE); [5mC] = 5-methylcytosine; d = 2'-deoxy (DNA)

test system: human LIM domain kinase 1 mRNA; assay: Antisense inhibition of human LIM domain kinase 1 mRNA levels, quantitative real-time PCR, A549 cells (screen); type: cell-based; details: quantitative real-time PCR, averages from two experiments, screening concentration not given (50 nM to 300 nM used herein)
Procedure: When cells reached 70% confluency, they were treated with oligonucleotide. […] Cells were harvested 16-24 hours after oligonucleotide treatment.
Vacuum was applied for 1 minute.
PCR reagents were obtained from Invitrogen Corporation, (Carlsbad, Calif.).
Total RNA is quantified using RiboGreenTM RNA quantification reagent from Molecular Probes.
Probes and primers to human LIM domain kinase 1 were designed to hybridize to a human LIM domain kinase 1 sequence, using published sequence information (GenBank accession number D26309.1, incorporated herein as SEQ ID NO:4). For human LIM domain kinase 1 the PCR primers were: forward primer: […] (SEQ ID NO: 5) reverse primer: […] (SEQ ID NO: 6) and the PCR probe was: FAM-[…]-TAMRA (SEQ ID NO: 7) where FAM is the fluorescent dye and TAMRA is the quencher dye.
All cytidine residues are 5-methylcytidines. […] Data are averages from two experiments in which A549 cells were treated with the oligonucleotides of the present invention. […] If present, “N.D.” indicates “no data”.

Row | Substance | % INHIB (inhibition of human LIM domain kinase 1 mRNA levels) [%]
1 | 206161 (eA*eA*e[5mC]*e[5mC]*eT*d[5mC]*dA*dT*dG*d[5mC]*dA*d[5mC]*dT*d[5mC]*dG*eA*e[5mC]*eG*eG*eG; antisense) [compound 206161] | 82
2 | 206162 (e[5mC]*eT*eG*e[5mC]*eT*dG*d[5mC]*dA*dG*d[5mC]*d[5mC]*dG*dT*dA*dT*eG*eA*eA*eA*eA; antisense) [compound 206162] | 74
3 | 206163 (eG*eT*e[5mC]*eA*eA*d[5mC]*d[5mC]*dT*d[5mC]*dA*dT*dG*d[5mC]*dA*d[5mC]*eT*e[5mC]*eG*eA*e[5mC]; antisense) [compound 206163] | 79
4 | 206164 (e[5mC]*eA*eG*eG*eT*dG*d[5mC]*dA*dA*d[5mC]*dA*dA*dA*dG*dT*eA*eG*e[5mC]*eG*eT; antisense) [compound 206164] | 75
5 | 206165 (e[5mC]*e[5mC]*e[5mC]*eT*e[5mC]*d[5mC]*dA*dG*dG*dT*dG*d[5mC]*dA*dA*d[5mC]*eA*eA*eA*eG*eT) [compound 206165] | 22
6 | 206166 (eT*eT*e[5mC]*eT*eT*d[5mC]*d[5mC]*d[5mC]*dT*d[5mC]*d[5mC]*dA*dG*dG*dT*eG*e[5mC]*eA*eA*e[5mC]; antisense) [compound 206166] | 70
7 | 206167 (eA*eT*eA*e[5mC]*eG*dT*dT*d[5mC]*dT*dT*d[5mC]*d[5mC]*d[5mC]*dT*d[5mC]*e[5mC]*eA*eG*eG*eT; antisense) [compound 206167] | 85
8 | 206168 (eT*e[5mC]*eT*e[5mC]*e[5mC]*d[5mC]*dA*dT*dA*d[5mC]*dG*dT*dT*d[5mC]*dT*eT*e[5mC]*e[5mC]*e[5mC]*eT; antisense) [compound 206168] | 36
9 | 206169 (e[5mC]*eT*eT*e[5mC]*e[5mC]*dT*d[5mC]*dT*d[5mC]*d[5mC]*d[5mC]*dA*dT*dA*d[5mC]*eG*eT*eT*e[5mC]*eT; antisense) [compound 206169] | 67
10 | 206170 (eG*e[5mC]*eA*eA*e[5mC]*dT*d[5mC]*dG*d[5mC]*dT*dT*d[5mC]*d[5mC]*dT*dT*e[5mC]*e[5mC]*eT*e[5mC]*eT; antisense) [compound 206170] | 43
11 | 206171 (eA*eG*eG*eG*e[5mC]*d[5mC]*dT*dG*dG*dA*dG*dG*dT*dA*d[5mC]*eT*eG*eG*e[5mC]*e[5mC]; antisense) [compound 206171] | 83
12 | 206172 (eT*e[5mC]*e[5mC]*eT*eT*d[5mC]*dT*dT*dG*d[5mC]*dA*dG*dA*dA*dG*eA*eG*e[5mC]*eT*eG; antisense) [compound 206172] | 76
13 | 206173 (eA*eG*eT*eA*eG*dT*d[5mC]*d[5mC]*dT*dT*d[5mC]*dT*dT*dG*d[5mC]*eA*eG*eA*eA*eG; antisense) [compound 206173] | 71
14 | 206174 (antisense eG*eG*e[5mC]*e[5mC]*e[5mC]*dA*dG*dT*dA*dG*dT*d[5mC]*d[5mC]*dT*dT*e[5mC]*eT*eT*eG*e[5mC]) [compound 206174] | 87
15 | 206175 (antisense eT*eA*eG*e[5mC]*eG*dG*dG*d[5mC]*d[5mC]*d[5mC]*dA*dG*dT*dA*dG*eT*e[5mC]*e[5mC]*eT*eT) [compound 206175] | 83
16 | 206176 (antisense e[5mC]*eG*e[5mC]*e[5mC]*eA*dT*dA*dG*d[5mC]*dG*dG*dG*d[5mC]*d[5mC]*d[5mC]*eA*eG*eT*eA*eG) [compound 206176] | 87
17 | 206177 (antisense eA*eG*e[5mC]*eT*eT*dG*dG*dA*dG*dT*dG*d[5mC]*dT*d[5mC]*d[5mC]*eA*e[5mC]*e[5mC]*eA*eG) [compound 206177] | 86
